Results as given in US9382306B2, “Octapeptide compounds derived from somatostatin and the therapeutic use thereof” (IPSEN PHARMA S.A.S., priority 2008, dated 2016).
Several values for one entry are separate records, joined by “and”; a condition that tells them apart may be missing. Identical values can stand only once. Bridge positions count the residues as written; N and C are the ends. Square brackets hold non-standard residues; d marks the D form. Peptide text beside a SMILES is read from it. ξ: configuration not given here. dPhe(4-Br) = N[C@H](Cc1ccc(Br)cc1)C(=O)O; dPhe(2-Br) = N[C@H](Cc1ccccc1Br)C(=O)O; 2Nal = N[C@@H](Cc1ccc2ccccc2c1)C(=O)O; d2Nal = N[C@H](Cc1ccc2ccccc2c1)C(=O)O; d(hPhe) = N[C@H](CCc1ccccc1)C(=O)O; dThr(3ξ) = CC(O)[C@@H](N)C(=O)O; Thr(3ξ) = CC(O)[C@H](N)C(=O)O

How the values were obtained:
[1] = Self-assembly study: putting peptides in solution in water, macroscopic, ATR-FTIR, TEM and SAXS analysis; format: physicochemical; settings: 3 to 15% by mass of peptide in water; form and diameter of the self-assembled structure, or soluble / insoluble
Source text: The procedure used comprises three stages: putting the peptides in solution and macroscopic analysis; spectroscopic and microscopic analyses of the structures formed and by small-angle X-ray scattering (SAXS) analyses.
The first stage of the characterization of the derivatives is the production of a range of concentrations from 3 to 15% by mass of peptide in water. Gelling of the solution indicates the presence of self-assembled structures which can be nanotubes but can also be fibres or other self-organised structures.
The object of this stage is to verify the presence of self-assembled structures, to characterize their self-assembly and to visualize them by microscopy.
Infrared spectroscopy makes it possible to obtain information on the method of stacking the peptides in the self-assemblies. The amide band spectrum, reflecting the absorption spectra of the carbonyl functions of the peptide backbone, gives information on the type of hydrogen bond in which these groups are involved (H bonds leading to the formation of the […], a helix or also a loop or random conformation) and consequently on the secondary and tertiary structure of the peptides in solution and self-assembled. The attenuated total reflection technique (ATR-FTIR) uses a crystal on which the solid or liquid sample is deposited. The infrared light is guided through this crystal at an angle which allows it to be reflected several times inside the crystal, which increases the sensitivity of the technique. Due to the performance of this device, it is then possible perform measurements on relatively dilute solutions. The beam penetrates a few microns into the sample deposited on the crystal, which means that only the molecules/structures which are deposited on the surface of the crystal are analyzed. Moreover, this technique is non-destructive.
The assembled structures are then visualized by transmission electron microscopy (TEM). This very powerful technique, allowing magnifications greater than 500,000 times, is one of the few techniques capable of visualizing structures on the nanometric scale. The sample is subjected to an electron beam. The visualization of the transmitted beam is produced either by a photoluminescent screen, or by a CCD camera. The sample in the microscope being under vacuum, it is samples dried after staining with uranyl salts in order to increase contrast which are observed.
The peptide in solution is firstly deposited on a copper grid covered with a film of carbon. After deposition of the materiel, the excess liquid is eliminated. In the same way, the solution of colorant, in our case uranyl acetate, is deposited on the grid, the excess is eliminated and the grid is dried in the open air. It can then be introduced into the microscope.
The samples, liquids or gels, are introduced into a capillary column and subjected to a monochromatic flow of X-rays. The intensity diffused is measured as a function of the scattering angle with respect to the incident angle.
The diffusion patterns thus obtained must be the subject of a correlation with a close theoretical model of the structures present in the sample. In the case where the peptides have self-assembled in the form of hollow nanotubes, the modelling of the experimental data with the theoretical diffusion produced by infinitely long hollow columns makes it possible to determine with precision the diameter of the columns and to estimate their wall thickness (Valery et al. in Biophysical journal, 2004, 86(4), 2484-2501 and Proc. Natl. Acad. Sci., 2003, 100(18) 10258-10262). For polydisperse, nanotubular, fibrilar, micellar or lamellar self-assemblies, it is the correlation of the spectroscopic, microscopic and XR scattering data which makes it possible to estimate a size range for the objects observed.

[2] = target: T1, somatostatin receptors sub-type 5 (Homo sapiens, UniProt P35346); experiment: Affinity for somatostatin receptors: inhibition of [125I-Tyr11]SRIF-14 binding to membranes of transfected CHO-K1 cells; settings: competitive inhibition of [125I-Tyr11]SRIF-14 binding, 37° C.
T1 construct: expressed in transfected cells; membrane preparations
T1 sequence (P35346 whole entry): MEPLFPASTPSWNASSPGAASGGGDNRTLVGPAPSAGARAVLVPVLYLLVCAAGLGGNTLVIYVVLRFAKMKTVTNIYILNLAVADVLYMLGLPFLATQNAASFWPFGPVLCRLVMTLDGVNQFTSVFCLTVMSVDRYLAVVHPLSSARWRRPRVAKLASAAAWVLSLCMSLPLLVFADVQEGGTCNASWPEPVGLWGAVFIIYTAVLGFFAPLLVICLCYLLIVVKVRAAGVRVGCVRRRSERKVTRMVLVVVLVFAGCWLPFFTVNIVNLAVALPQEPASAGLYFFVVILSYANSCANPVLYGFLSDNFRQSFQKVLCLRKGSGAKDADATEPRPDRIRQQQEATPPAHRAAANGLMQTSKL
Protocol: (§1) The affinity of the compounds of the invention for the somatostatin receptors is determined by measurement of the inhibition of the bond of [125I-Tyr11]SRIF-14 to membrane preparations of transfected CHO-K1 cells.
(§2) The CHO-K1 cells expressing in a stable fashion each of the sub-types of somatostatin receptors are collected with 0.5 mM of EDTA and centrifuged at 500 g for 5 minutes at 4° C. The pellet is re-suspended in phosphate buffer (PBS) and centrifuged at 500 g for 5 minutes at 4° C. The pellet is re-suspended in Tris 50 mM buffer at pH 7.4 and centrifuged at 500 g for 5 minutes at 4° C. The cells are lyzed by sonication and centrifuged at 39,000 g for 10 minutes. The pellet is re-suspended in Tris 50 mM buffer at pH 7.4, an aliquot is removed for assaying the proteins and the remainder is centrifuged at 50,000 g for 10 minutes. The membranes obtained in this last pellet are stored at −80° C.
(§3) Measurement of the competitive inhibition of the bond of [125I-Tyr11]SRIF-14 (Perkin Elmer) on each of the sub-types of somatostatin receptors is carried out in duplicate in 96-well polypropylene plates. The cell membranes (5 to 20 µg of proteins/well) are incubated with [125I-Tyr11]SRIF-14 (0.05 to 0.1 nM) for 50 to 90 minutes at 37° C. (conditions dependent on the sub-type of receptor) in a HEPES buffer medium 50 mM pH 7.4, comprising 0.2% bovine serum albumin (BSA), MgCl2 5 mM, Trasylol 200 KIU/mL, Bacitracin 0.02 mg/mL, phenylmethylsulphonyl fluoride 0.02 mg/mL.
(§4) The bound [125I-Tyr11]SRIF-14 is separated from the free [125I-Tyr11]SRIF-14 by filtration through GF/C glass fibre plates (Unifilter, Perkin Elmer) pre-impregnated with 0.1% polyethylenimine (P.E.I.), using a Filtermate 96 (Perkin Elmer). The filters are washed with Tris-HCl buffer 50 mM, pH 7.4 at 4° C. and the radioactivity present is determined using a counter (TopCount, Perkin Elmer).
(§5) The data are analyzed by computer-assisted non-linear regression using XLfit 4.2 (IDBS) software.

[3] = target: T2, somatostatin receptors sub-type 2 (Homo sapiens, UniProt P30874); experiment: as above; settings: competitive inhibition of [125I-Tyr11]SRIF-14 binding, 37° C.
T2 construct: expressed in transfected cells; membrane preparations
T2 sequence (P30874 whole entry): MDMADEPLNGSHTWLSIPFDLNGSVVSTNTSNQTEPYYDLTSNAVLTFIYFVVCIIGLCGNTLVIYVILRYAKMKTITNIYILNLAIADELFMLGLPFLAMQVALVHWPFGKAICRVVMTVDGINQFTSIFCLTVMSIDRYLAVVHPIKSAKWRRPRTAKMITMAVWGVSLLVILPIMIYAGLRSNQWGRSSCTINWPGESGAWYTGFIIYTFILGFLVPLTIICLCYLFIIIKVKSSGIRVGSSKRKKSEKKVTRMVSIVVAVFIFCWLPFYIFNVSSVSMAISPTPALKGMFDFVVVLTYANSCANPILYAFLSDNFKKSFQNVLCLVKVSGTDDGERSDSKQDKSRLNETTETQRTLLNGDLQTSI
Protocol: as §1, §2, §3, §4, §5

Row | Structure (SMILES) | Assembly [1] | Ki [2] | Ki [3]
1 | CC(C)[C@@H]1NC(=O)[C@H](CCCCN)NC(=O)[C@@H](Cc2csc3ccccc23)NC(=O)[C@H](Cc2ccc(O)cc2)NC(=O)[C@@H](NC(=O)[C@H](N)Cc2ccc3ccccc3c2)CSSC[C@@H](C(=O)N[C@H](C(N)=O)C(C)O)NC1=O (stereo partly drawn) [Example 1, H-D-2-Nal^1-cyclo(Cys^2-Tyr^3-β-(3-benzothienyl)-D-Ala^4-Lys^5-Val^6-Cys^7)-Thr^8-NH2.2 CH3COOH] | monodisperse peptide nanotubes and 20 nm monodisperse nanotube | ≤ 100 nM | ≤ 5 nM
2 | CC(C)[C@@H]1NC(=O)[C@H](CCCCN)NC(=O)[C@@H](Cc2cccs2)NC(=O)[C@H](Cc2ccc(O)cc2)NC(=O)[C@@H](NC(=O)[C@H](N)Cc2ccc3ccccc3c2)CSSC[C@@H](C(=O)N[C@H](C(N)=O)C(C)O)NC1=O (stereo partly drawn) [Example 2, H-D-2-Nal^1-cyclo(Cys^2-Tyr^3-β-(2-thienyl)-D-Ala^4-Lys^5-Val^6-Cys^7)-Thr^8-NH2.2 CH3COOH] | monodisperse peptide nanotubes and 12 nm monodisperse nanotube | ≤ 1000 nM | ≤ 50 nM
3 | CC(C)[C@@H]1NC(=O)[C@H](CCCCN)NC(=O)[C@@H](C(C)C)NC(=O)[C@H](Cc2ccc(O)cc2)NC(=O)[C@@H](NC(=O)[C@H](N)Cc2ccc3ccccc3c2)CSSC[C@@H](C(=O)N[C@H](C(N)=O)C(C)O)NC1=O (stereo partly drawn) [Example 5, H-D-2-Nal^1-cyclo(Cys^2Tyr^3-D-Val^4-Lys^5-Val^6Cys^7)-Thr^8-NH2.2 CH3COOH] (H-[d2Nal]CY[dV]KVC[Thr(3ξ)]-NH2; disulfide 2-7) | soluble | ≤ 5000 nM | ≤ 700 nM
4 | CC(C)[C@@H]1NC(=O)[C@H](CCCCN)NC(=O)[C@@H](Cc2c3ccccc3cc3ccccc23)NC(=O)[C@H](Cc2ccc(O)cc2)NC(=O)[C@@H](NC(=O)[C@H](N)Cc2ccc3ccccc3c2)CSSC[C@@H](C(=O)N[C@H](C(N)=O)C(C)O)NC1=O (stereo partly drawn) [Example 8, H-D-2-Nal^1-cyclo(Cys^2Tyr^3-β-(9-anthryl)-D-Ala^4-Lys^5-Val^6Cys^7)-Thr^8-NH2.2 CH3COOH] | insoluble | ≤ 100 nM | ≤ 50 nM
5 | CC(C)[C@@H]1NC(=O)[C@H](CCCCN)NC(=O)[C@@H](c2ccccc2)NC(=O)[C@H](Cc2ccc(O)cc2)NC(=O)[C@@H](NC(=O)[C@H](N)Cc2ccc3ccccc3c2)CSSC[C@@H](C(=O)N[C@H](C(N)=O)C(C)O)NC1=O (stereo partly drawn) [Example 10, H-D-2-Nal^1-cyclo(Cys^2-Tyr^3-D-Phg^4-Lys^5-Val^6-Cys^7)-Thr^8-NH2.2 CH3COOH] | self-assembled fibres | ≤ 5000 nM | ≤ 700 nM
6 | CC(C)[C@@H]1NC(=O)[C@H](CCCCN)NC(=O)[C@@H](CCc2ccccc2)NC(=O)[C@H](Cc2ccc(O)cc2)NC(=O)[C@@H](NC(=O)[C@H](N)Cc2ccc3ccccc3c2)CSSC[C@@H](C(=O)N[C@H](C(N)=O)C(C)O)NC1=O (stereo partly drawn) [Example 11, H-D-2-Nal^1-cyclo(Cys^2-Tyr^3-D-Homophe^4-Lys^5-Val^6Cys^7)-Thr^8-NH2.2 CH3COOH] (H-[d2Nal]CY[d(hPhe)]KVC[Thr(3ξ)]-NH2; disulfide 2-7) | soluble | ≤ 1000 nM | ≤ 50 nM
7 | CC(C)[C@@H]1NC(=O)[C@H](CCCCN)NC(=O)[C@@H](Cc2ccc(Br)cc2)NC(=O)[C@H](Cc2ccc(O)cc2)NC(=O)[C@@H](NC(=O)[C@H](N)Cc2ccc3ccccc3c2)CSSC[C@@H](C(=O)N[C@H](C(N)=O)C(C)O)NC1=O (stereo partly drawn) [Example 12, H-D-2-Nal^1-cyclo(Cys^2-Tyr^3-p-Br-D-Phe^4-Lys^5-Val^6-Cys^7)-Thr^8-NH2.2 CH3COOH] (H-[d2Nal]CY[dPhe(4-Br)]KVC[Thr(3ξ)]-NH2; disulfide 2-7) | monodisperse peptide nanotubes and 17 nm monodisperse nanotube | ≤ 100 nM | ≤ 5 nM
8 | CC(C)[C@@H]1NC(=O)[C@H](CCCCN)NC(=O)[C@@H](Cc2ccc(O)cc2)NC(=O)[C@H](Cc2ccc(O)cc2)NC(=O)[C@@H](NC(=O)[C@H](N)Cc2ccc3ccccc3c2)CSSC[C@@H](C(=O)N[C@H](C(N)=O)C(C)O)NC1=O (stereo partly drawn) [Example 14, H-D-2-Nal^1-cyclo(Cys^2-Tyr^3-D-Tyr^4-Lys^5-Val^6-Cys^7)-Thr^8-NH2.2 CH3COOH] (H-[d2Nal]CY[dY]KVC[Thr(3ξ)]-NH2; disulfide 2-7) | monodisperse peptide nanotubes and 18 nm monodisperse nanotube | ≤ 1000 nM | ≤ 5 nM
9 | CC(C)[C@@H]1NC(=O)[C@H](CCCCN)NC(=O)[C@@H](Cc2ccccc2Br)NC(=O)[C@H](Cc2ccc(O)cc2)NC(=O)[C@@H](NC(=O)[C@H](N)Cc2ccc3ccccc3c2)CSSC[C@@H](C(=O)N[C@H](C(N)=O)C(C)O)NC1=O (stereo partly drawn) [Example 19, H-D-2-Nal^1-cyclo(Cys^2-Tyr^3-o-Br-D-Phe^4-Lys^5-Val^6-Cys^7)-Thr^8-NH2.2 CH3COOH] (H-[d2Nal]CY[dPhe(2-Br)]KVC[Thr(3ξ)]-NH2; disulfide 2-7) |  | ≤ 100 nM | ≤ 5 nM
10 | COCCOCCOc1ccc(C[C@H]2NC(=O)[C@H](Cc3ccc(O)cc3)NC(=O)[C@@H](NC(=O)[C@H](N)Cc3ccc4ccccc4c3)CSSC[C@@H](C(=O)N[C@H](C(N)=O)[C@@H](C)O)NC(=O)[C@H](C(C)C)NC(=O)[C@H](CCCCN)NC2=O)cc1 [Example 22, H-D-2-Nal^1-cyclo(Cys^2-Tyr^3-p-2-(2-methoxyethoxy)ethoxy)-D-Phe^4-Lys^5-Val^6-Cys^7)-Thr^8-NH2].2 CH3COOH] | 17.4 nm monodisperse nanotube |  | 
11 | CC(C)[C@H]1NC(=O)[C@@H](CCCCN)NC(=O)[C@H](Cc2c[nH]c3ccccc23)NC(=O)[C@@H](Cc2ccc(O)cc2)NC(=O)[C@H](NC(=O)[C@@H](N)Cc2ccc3ccccc3c2)CSSC[C@H](C(=O)N[C@@H](C(N)=O)C(C)O)NC1=O (stereo partly drawn) [Example 23, H-2-Nal^1-cyclo(D-Cys^2-D-Tyr^3-Trp^4-D-Lys^5-D-Val^6-D-Cys^7)-D-Thr^8-NH2.2 CH3COOH] (H-[2Nal][dC][dY]W[dK][dV][dC][dThr(3ξ)]-NH2; disulfide 2-7) | 24.4 nm monodisperse nanotube |  | 
